Assay [1] deals with U2932. In words: Cytotoxicity against human U2932 cells assessed as inhibition of cell growth measured after 72 hrs by CCK-8 assay. Type of assay: functional, cell-based. Particulars: U2932, 72 h. On the technique in general: Tetrazolium assays rely on reduction of a dye to a coloured formazan, in cell work by metabolically active cells.
The target of assay [2] is Cyclin-dependent kinase 9 (Homo sapiens) (UniProt P50750). Nature of the assay: Inhibition of GST-fused human full-length CDK9 (1 to 372(end) residues)/N-terminal GST-fused His-tagged human full-length CyclinT1 (1 to 726(end) residues) expressed in baculovirus expression system at 100 nM using CDK7/9 tide as substrate incubated for 120 mins in presence of ATP by ADP-Glo Kinase assay relative to control. For orientation: ADP-Glo turns the ADP formed in a reaction into a luminescent signal.
Sequence of Cyclin-dependent kinase 9 (Homo sapiens) (P50750 whole entry, the tested form may be a part): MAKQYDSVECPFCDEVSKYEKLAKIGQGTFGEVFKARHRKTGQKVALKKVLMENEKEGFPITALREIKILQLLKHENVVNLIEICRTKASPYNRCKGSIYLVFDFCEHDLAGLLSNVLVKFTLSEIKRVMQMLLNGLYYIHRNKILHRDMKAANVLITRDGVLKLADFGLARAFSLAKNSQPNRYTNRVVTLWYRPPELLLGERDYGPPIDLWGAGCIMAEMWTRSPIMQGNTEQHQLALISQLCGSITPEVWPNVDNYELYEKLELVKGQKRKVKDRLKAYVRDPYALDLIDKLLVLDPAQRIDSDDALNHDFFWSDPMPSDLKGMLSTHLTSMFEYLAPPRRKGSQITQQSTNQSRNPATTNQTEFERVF

For assay [3] the target is unchanged. Nature of the assay: Inhibition of GST-fused human full-length CDK9 (1 to 372(end) residues)/N-terminal GST-fused His-tagged human full-length CyclinT1 (1 to 726(end) residues) expressed in baculovirus expression system at 10 nM using CDK7/9 tide as substrate incubated for 120 mins in presence of ATP by ADP-Glo Kinase assay relative to control.
In assay [4] the target is CDK9/cyclin T1 (Homo sapiens) (UniProt O60563+P50750). In words: Induction of CDK9/CyclinT1 degradation in human U2932 cells at 100 nM measured after 24 hrs by immunoblotting analysis. Type of assay: cell-based. In general terms: In western blotting, separated proteins are transferred to a membrane and probed.
Assay [5] concerns U2932. In words: Induction of apoptosis in human U2932 cells assessed as late apoptotic cells at 1000 nM incubated for 24 hrs by AnnexinV-FITC/PI staining based flow cytometry analysis (reference value: 5.95%). Type of assay: functional.
The test system of assay [6] is U2932. Nature of the assay: Induction of apoptosis in human U2932 cells assessed as early apoptotic cells at 1000 nM incubated for 24 hrs by AnnexinV-FITC/PI staining based flow cytometry analysis (reference value: 6.20%). Type of assay: functional.
Assay [7] concerns U2932. In words: Induction of apoptosis in human U2932 cells assessed as necrotic cells at 1000 nM incubated for 24 hrs by AnnexinV-FITC/PI staining based flow cytometry analysis (reference value: 0.92%). Type of assay: functional.
Assay [8] relates to U2932. Nature of the assay: Induction of apoptosis in human U2932 cells assessed as viable cells at 1000 nM incubated for 24 hrs by AnnexinV-FITC/PI staining based flow cytometry analysis (reference value: 86.9%). Type of assay: functional. The settings on record: read-out: Activity.

Activity calls are given as the source filed them. The rule behind the calls is not given here.

By IC50 is commonly meant the point on the concentration scale where inhibition reaches its midpoint. As a reminder, the inhibition is the change of the read-out against control, counted positive when it falls.

Regarding `Cc1cc(=O)oc2cc(OCCCCCN3CCC(C(=O)Nc4ncc(SCc5ncc(C(C)(C)C)o5)s4)CC3)cc(O)c12`, in the assay with U2932 [1], the 50% inhibitory concentration (IC50) came to 0.098 µM. Moreover, the inhibition in assay [2] is 57%; in assay [3], 2%.
`CC(C)(C)c1cnc(CSc2cnc(NC(=O)C3CCN(CCCOc4cc(O)cc5oc(=O)ccc45)CC3)s2)o1`: in the assay on U2932 [1], the IC50 amounted to 0.125 µM. Moreover, the inhibition in assay [2] is 52%; in assay [3], -3%. The outcome in assay [4] was Active.
Consider `CC(C)(C)c1cnc(CSc2cnc(NC(=O)C3CCN(CCCCCOc4cc(O)cc5oc(=O)ccc45)CC3)s2)o1`, for which, in the assay with U2932 [1], the IC50 amounted to 0.109 µM. Further, the inhibition was determined as 83% in assay [2] and 24% in assay [3].
For the compound `Cc1cc(=O)oc2cc(O)cc(OCCCCN3CCC(C(=O)Nc4ncc(SCc5ncc(C(C)(C)C)o5)s4)CC3)c12`, in the assay on U2932 [1], the half-maximal inhibitory concentration (IC50) is 0.142 µM. Also, the inhibition turned out to be 79% in assay [2] and 9% in assay [3].
`CC(C)(C)c1cnc(CSc2cnc(NC(=O)C3CCN(CCCOc4cc(O)cc5oc(=O)cc(-c6ccc(F)cc6)c45)CC3)s2)o1`: in the assay on U2932 [1], the concentration for half-maximal inhibition (IC50) worked out at 0.346 µM. Besides, the inhibition in assay [2] was found to be 68%.
As for `COc1ccc(-c2cc(=O)oc3cc(O)cc(OCCCN4CCC(C(=O)Nc5ncc(SCc6ncc(C(C)(C)C)o6)s5)CC4)c23)cc1`, the half-maximal inhibitory concentration (IC50) with U2932 [1] was found to be 0.604 µM. For the same compound, the inhibition was 61% in assay [2] and -5% in assay [3].
Turning to `Cc1cc(=O)oc2cc(OCCOCCN3CCC(C(=O)Nc4ncc(SCc5ncc(C(C)(C)C)o5)s4)CC3)cc(O)c12`, in the assay on U2932 [1], the half-maximal inhibitory concentration (IC50) turned out to be 0.145 µM. The inhibition in assay [2] is 71%; in assay [3], 28%.
The corresponding values for `Cc1cc(=O)oc2cc(O)cc(OCCN3CCC(C(=O)Nc4ncc(SCc5ncc(C(C)(C)C)o5)s4)CC3)c12` are 0.424 µM, 73% and 23%.
With `CC(C)(C)c1cnc(CSc2cnc(NC(=O)C3CCN(CCCOc4cc(O)c5c(-c6ccc(F)cc6)cc(=O)oc5c4)CC3)s2)o1`, the IC50 in the assay on U2932 [1] was 0.124 µM. Also, the inhibition in assay [2] worked out at 80%. Further, the result in assay [4] was Active.
Take `CC(C)(C)c1cnc(CSc2cnc(NC(=O)C3CCN(CCCOc4cc(O)c5ccc(=O)oc5c4)CC3)s2)o1`: the IC50 in the assay on U2932 [1] was found to be 0.157 µM. Also, the results for the inhibition in assay [2] and in assay [3] were 78% and 45%, respectively. Moreover, the result in assay [4] was Active.
`COc1ccc(-c2cc(=O)oc3cc(OCCCN4CCC(C(=O)Nc5ncc(SCc6ncc(C(C)(C)C)o6)s5)CC4)cc(O)c23)cc1`: the half-maximal inhibitory concentration (IC50) with U2932 [1] was found to be 0.104 µM. Further, the inhibition in assay [2] amounted to 83%; in assay [3] it was 33%. Also, in assay [4], the outcome was Active.
Consider `Cc1cc(=O)oc2cc(OCCN3CCC(C(=O)Nc4ncc(SCc5ncc(C(C)(C)C)o5)s4)CC3)cc(O)c12`, for which the IC50 with U2932 [1] was 0.155 µM. Besides, the inhibition in assay [2] was 69%; in assay [3] it was 37%.
In the case of `CC(C)(C)c1cnc(CSc2cnc(NC(=O)C3CCN(CCCOc4cc(O)c5c(-c6ccncc6)cc(=O)oc5c4)CC3)s2)o1`, the IC50 with U2932 [1] stood at 0.192 µM. In addition, the inhibition was 69% in assay [2] and 15% in assay [3]. Moreover, the result in assay [4] was Active.
With `Cc1cc(=O)oc2cc(OCCCCN3CCC(C(=O)Nc4ncc(SCc5ncc(C(C)(C)C)o5)s4)CC3)cc(O)c12`, the IC50 with U2932 [1] turned out to be 0.133 µM. In addition, the inhibition in assay [2] is 73%; in assay [3], 26%.
Turning to `CC(C)(C)c1cnc(CSc2cnc(NC(=O)C3CCN(CCCOc4cc(O)cc5oc(=O)cc(-c6ccccc6)c45)CC3)s2)o1`, the IC50 in the assay with U2932 [1] is 0.624 µM. Also, the inhibition in assay [2] is 51%; in assay [3], -8%.
`CC(C)(C)c1cnc(CSc2cnc(NC(=O)C3CCN(CCCOc4cccc5oc(=O)cc(-c6ccccc6)c45)CC3)s2)o1`: in the assay with U2932 [1], the IC50 amounted to 0.534 µM. The inhibition is 36% in assay [2] and -8% in assay [3].
Turning to `Cc1cc(=O)oc2cc(O)cc(OCCCN3CCC(C(=O)Nc4ncc(SCc5ncc(C(C)(C)C)o5)s4)CC3)c12`, the IC50 with U2932 [1] came to 0.157 µM. In addition, in assay [2], the inhibition stood at 55%. Besides, the outcome in assay [4] was Active.
Turning to `CC(C)(C)c1cnc(CSc2cnc(NC(=O)C3CCN(CCCOc4ccc5c(-c6ccccc6)cc(=O)oc5c4)CC3)s2)o1`, in the assay with U2932 [1], the IC50 amounted to 0.32 µM. In addition, the inhibition turned out to be 69% in assay [2] and 6% in assay [3].
For `Cc1cc(=O)oc2cc(O)cc(OCCOCCN3CCC(C(=O)Nc4ncc(SCc5ncc(C(C)(C)C)o5)s4)CC3)c12`, in the assay with U2932 [1], the IC50 is 0.18 µM. Besides, the values for the inhibition in assay [2] and in assay [3] were 63% and 5%, respectively.
Regarding `CC(C)(C)c1cnc(CSc2cnc(NC(=O)C3CCN(CCCOc4cc(O)c5c(-c6ccccc6)cc(=O)oc5c4)CC3)s2)o1`, the concentration for half-maximal inhibition (IC50) with U2932 [1] turned out to be 0.12 µM. The inhibition in assay [2] is 86%; in assay [3] it was -4%. For the same compound, the outcome in assay [4] was Active.
For `CC(C)(C)c1cnc(CSc2cnc(NC(=O)C3CCN(CCCOc4cc(O)cc5oc(=O)cc(-c6ccncc6)c45)CC3)s2)o1`, the IC50 in the assay with U2932 [1] came out at 0.484 µM. Also, in assay [2], the inhibition worked out at 55%.
In the case of `CC(C)(C)c1cnc(CSc2cnc(NC(=O)C3CCN(CC(=O)NCCOCCOCCOCCNc4cccc5c4C(=O)N(C4CCC(=O)NC4=O)C5=O)CC3)s2)o1` (centres undefined), in the assay on U2932 [1], the IC50 is 0.306 µM. In addition, the Activity in the assay with U2932 [5] is 22.3%; with U2932 [6] it was 8.93%; in the assay with U2932 [7] it was 1.55%. Moreover, the inhibition turned out to be 39% in assay [2] and 4% in assay [3]. The result in assay [4] was Active. The viability at 1 µM in the assay on U2932 [8] is 67.2%.

The values are drawn from ChEMBL document CHEMBL5365461, “Degradation of Cyclin-Dependent Kinase 9/Cyclin T1 by Optimized Microtubule-Associated Protein 1 Light Chain 3 Beta-Recruiting Coumarin Analogs” (J Med Chem, 2023).
